Molecules are shown by their SMILES. “Also recorded” adds a separate entry of the source.

The source of these data is US20190136188A1, “4HPR AND ITS USE IN THE CULTURING OF HEMATOPOIETIC STEM CELLS” (UNIVERSITY HEALTH NETWORK, priority 2016, published 2019).

One experiment relates to sorted HSC, MPP or GMP. As to the kind of experiment: Colony forming assay (CFC) in methylcellulose. The class given is cell-based, human. The conditions noted are these: for cloning efficiency of the HSC / relative number of colonies relative to vehicle control: 35 nM UM171 or 0.5 uM SR1, 10 days. How it is done: (A) Dose response of varying [4HPR] in CB at day 3 post-treatment showing 2 uM 4HPR gives the relative half maximal number of viable cells compared to control. All experiments following are at this 4HPR concentration unless otherwise indicated. […] (C) LC/MS was used to profile the ceramide (Cer), dihydroceramide (dhCer), sphingosine (sph), dihydrosphingosine (dhSph), S1P and dihydro-S1P (dhS1P) levels in lin− CB cells cultured for 8 days with control or 4HPR (n=2). […] (D) HSC, MPP, or GMP were sorted into methylcellulose for CFC assays in the presence of control or 4HPR and colonies were blindly scored following 10-11 days for (D) colonies/100 cells and ((E) colony distribution are shown (n=7). (F) Flow cytometry for erythroid (GlyA+) and monocytic (CD14+) markers in live cells from pooled CFC colonies were scored (n=6). (F) Relative number of colonies from CFC assays comparing the effect of 4HPR or ATRA (n=3) on sorted HSC, MPP or GMP. […]
(A) Representative flow cytometry analysis of the primitive hierarchy within the CD34+ fraction of day 8 cultured lin− CB cells after the indicated treatments for CD90 and CD45RA, n=4. B) The distribution of cultured CD34+CD90+CD45RA− (cHSC), CD34+CD90−CD45RA− (cMPP), and […] for the indicated conditions at day 8 of ex vivo culture following CD34 enrichment. Statistical significance assayed through unpaired t-test relative to vehicle control (Ctrl). The relative number of colonies resulting from (C) HSC or (D) MPP grown in methylcellulose CFC assays in the presence of vehicle control (−) or the indicated combination of 2 uM 4HPR, or 35 nM UM171 or 0.5 uM SR1 at 10 days. Statistical significance is calculated via unpaired t-test relative to ctrl (black) or to the presence of absence of 4HPR treatment for UM171 or SR1.
However, the functional consequence of 4HPR treatment on human cord blood primitive cells is unknown. A dose titration of 4HPR was performed on lineage-depleted CB (lin-CB) cells and 2 uM was calculated to give half maximal cell viability at 3 days post-treatment compared to vehicle control (ctrl), a concentration reported in cell lines to antagonize DEGS1 enzymatic function, and used for all subsequent experiments unless otherwise indicated (FIG. 1A). […] Next, we utilized the colony forming assay (CFC) for in vitro progenitor function to determine if 4HPR treatment alters functional output from isolated populations of CB HSPC. […] This is unsurprising as retinoic acid signaling is a potent differentiation signal in hematopoietic cells. Thus, 4HPR inhibition of sphingolipid homeostasis selectively enhances cloning efficiency in human HSC.
Given the CD34 compartment where functional HSC should reside following ex vivo expansion is critical to blood production, we asked if there were immunophenotypic alterations following 4HPR treatment. StemRegenin-1 (SR1) or UM171 are two molecules whose action on CB has been reported to expand CD34+ cells dramatically and lead to increase reconstitution in xenotransplantation (Fares, et al Science, 2014: Boitano, Science, 2010). We sought to ask if limiting CD34+ expansion with 4HPR treatment is synergistic with these known agonists of CB ex vivo expansion. Lin− CB were cultured with these 3 small molecules alone or in combination for 8 days and the CD34 compartment was isolated and analyzed by flow cytometry further with CD90 and CD45RA to look at immunophenotypic cultured HSC (cHSC), MPP (cMPP) and committed progenitors (cProg). These populations were sorted from lin-CB at […] following expansion and transplanted into NSG mice for 16 weeks to ascertain that cProg cells are committed progenitors, while cHSC and cMPP retain multipotency following culture (FIG. 8A, B). […]

The next experiment deals with sorted HSC and MPP. In words: 8 day ex vivo expansion of sorted HSC and MPP, CD34+ compartment by flow cytometry. The class given is cell-based, human. The conditions noted are these: D8 after ex vivo expansion. The source says:
B) Lymphoid and C) myeloid engraftment from (A) at 16 weeks post-transplantion. […] F) Flow cytometry plots showing the CD34+ population from 8 day cultured HSC.
Given the CD34 compartment where functional HSC should reside following ex vivo expansion is critical to blood production, we asked if there were immunophenotypic alterations following 4HPR treatment. StemRegenin-1 (SR1) or UM171 are two molecules whose action on CB has been reported to expand CD34+ cells dramatically and lead to increase reconstitution in xenotransplantation (Fares, et al Science, 2014: Boitano, Science, 2010). We sought to ask if limiting CD34+ expansion with 4HPR treatment is synergistic with these known agonists of CB ex vivo expansion. Lin− CB were cultured with these 3 small molecules alone or in combination for 8 days and the CD34 compartment was isolated and analyzed by flow cytometry further with CD90 and CD45RA to look at immunophenotypic cultured HSC (cHSC), MPP (cMPP) and committed progenitors (cProg). […] To further elucidate the specific action of 4HPR on HSC over MPP and compare this to UM171 and SR1, sorted HSC and MPP were put into ex vivo expansion conditions for 8 days with the same treatments as in FIG. 7A, B and their growth and CD34+ compartment were monitored by flow cytometry (FIG. 8D-F). […]
(Flow cytometry measures light scatter and fluorescence of single cells or particles in a stream.)

For the compound `CC1=C(/C=C/C(C)=C/C=C/C(C)=C/C(=O)O)C(C)(C)CCC1` [ATRA, all-trans retinoic acid], the colony output result in the experiment with sorted HSC, MPP or GMP (ATRA treatment, HSC, MPP, GMP) is “decreases colony output from all HSPC populations”.
`Cn1nnc(-c2ccc3c(c2)[nH]c2nc(Cc4ccccc4)nc(N[C@H]4CC[C@H](N)CC4)c23)n1` [UM171, (1r,4r)-N1-(2-benzyl-7-(2-methyl-2H-tetrazol-5-yl)-9H-pyrimido[4,5-b]indol-4-yl)cyclohexane-1,4-diamine]: the “primitive CD34+ cells from sorted HSC and MPP” value in the experiment with sorted HSC and MPP is “promote CD34+ expansion more from MPP than HSC; also recorded: dramatically increases primitive CD34+ from both HSC and MPP”. Further, in the experiment on sorted HSC, MPP or GMP, the “cloning efficiency of the HSC” value is listed as “both decreased cloning efficiency of the HSC” and the “relative number of colonies relative to vehicle control” value is “Neither UM171 nor SR1 altered relative number of colonies”.
For the compound `CC(C)n1cnc2c(NCCc3ccc(O)cc3)nc(-c3csc4ccccc34)nc21` [SR1, StemRegenin-1], in the experiment with sorted HSC and MPP, the “primitive CD34+ cells from sorted HSC and MPP” value was “promote CD34+ expansion more from MPP than HSC; also recorded: occurs primarily in sorted MPP, not HSC”. Besides, in the experiment with sorted HSC, MPP or GMP, the “cloning efficiency of the HSC” value is “both decreased cloning efficiency of the HSC” and the “relative number of colonies relative to vehicle control” value was “Neither UM171 nor SR1 altered relative number of colonies”.
